Data on 83 compounds can be found in the Kinase Knowledgebase extract (Sharma et al. 2016).

Chain of MAPK14 (human) (Q16539 whole entry, looked up): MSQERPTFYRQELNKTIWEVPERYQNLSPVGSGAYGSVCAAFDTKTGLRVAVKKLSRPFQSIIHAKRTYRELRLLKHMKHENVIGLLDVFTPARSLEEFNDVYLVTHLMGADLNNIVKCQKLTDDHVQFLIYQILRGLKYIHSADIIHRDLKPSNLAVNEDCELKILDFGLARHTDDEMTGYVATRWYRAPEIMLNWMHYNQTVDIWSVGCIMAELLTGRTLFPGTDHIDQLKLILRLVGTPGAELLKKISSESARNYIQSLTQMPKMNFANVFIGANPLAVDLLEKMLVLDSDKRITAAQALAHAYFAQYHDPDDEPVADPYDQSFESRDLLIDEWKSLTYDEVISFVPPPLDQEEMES

One assay concerns the target MAPK14 (human) (UniProt Q16539). The assay is described as follows: Inhibition of LPS Stimulated TNF Production by U937 Cells.
Conditions: not given
Usually IC50 stands for the midpoint of a concentration-inhibition curve. `CN(C)c1n[nH]c(-c2ccc(F)cc2)c1-c1ccncc1` gave an IC50 of 0.484 µM.

`CNC(=O)CC[C@H](NC(=O)Nc1ccccc1F)c1[nH]nc(-c2ccc(F)cc2)c1-c1ccncc1` yielded an IC50 greater than 1 µM.

`CCCCS(=O)(=O)NCc1[nH]nc(-c2ccc(F)cc2)c1-c1ccncc1` showed an IC50 of 5 µM.

The compound `OCCn1cc(-c2ccnc(CCc3ccc(F)cc3)c2)c(-c2ccc(F)cc2)n1` registered an IC50 of 0.583 µM.

Turning to `Fc1ccc(-c2n[nH]cc2-c2ccnc(NCc3cccc(F)c3)c2)cc1`, the IC50 amounted to 0.141 µM. This IC50 lies about 4.1-fold lower than the previous one.

`Cc1[nH]nc(-c2ccc(F)cc2)c1-c1ccncc1` yielded a half-maximal inhibitory concentration (IC50) of 0.222 µM.

The compound `CNC(=O)N[C@H](Cc1ccccc1)c1[nH]nc(-c2ccc(F)cc2)c1-c1ccncc1` yielded an IC50 greater than 1 µM.

Take `CC(C)c1ccc(S(=O)(=O)NCc2[nH]nc(-c3ccc(F)cc3)c2-c2ccncc2)cc1`: the half-maximal inhibitory concentration (IC50) was greater than 1 µM.

Regarding `CCN(CC)CCn1cc(-c2ccnc(NCc3ccc(F)cc3)c2)c(-c2ccc(F)cc2)n1`, the IC50 came to 0.7 µM.

Turning to `CCOc1ccc(-c2[nH]nc(C)c2-c2ccncc2)cc1`, the IC50 came to 2.36 µM.

Turning to `Cn1cc(-c2ccncc2)c(-c2cccc(F)c2)n1`, the IC50 was found to be 0.462 µM. This IC50 is about 5.1-fold lower than that of the compound before.

As to `C[C@H](NS(C)(=O)=O)c1[nH]nc(-c2ccc(F)cc2)c1-c1ccncc1`, the IC50 worked out at 1.7 µM. Compared with the last compound, the IC50 is about 3.7-fold higher.

In turn, `O=C(NCCCc1[nH]nc(-c2ccc(F)cc2)c1-c1ccncc1)NCCCn1ccnc1` gave a 50% inhibitory concentration (IC50) greater than 1 µM.

Regarding `CCCc1n[nH]c(-c2cccc(C)c2)c1-c1ccncc1`, the IC50 came to 0.029 µM. This counts as double-digit nanomolar.

In the case of `C=CCOC(=O)N[C@H](C)c1[nH]nc(-c2ccc(F)cc2)c1-c1ccncc1`, the half-inhibitory concentration (IC50) stood at 0.66 µM.

In turn, `O=S(=O)(NCc1[nH]nc(-c2ccc(F)cc2)c1-c1ccncc1)c1ccc(F)cc1` had an IC50 of 2.78 µM.

In turn, `CNC(=O)CC[C@H](NC(=O)COC)c1[nH]nc(-c2ccc(F)cc2)c1-c1ccncc1` had an IC50 greater than 1 µM.

On to `CC(C)=CC(=O)NCc1[nH]nc(-c2ccc(F)cc2)c1-c1ccncc1`, for which the 50% inhibitory concentration (IC50) worked out at 11 µM.

`Cc1[nH]nc(-c2ccc(Cl)cc2)c1-c1ccncc1` gave an IC50 of 0.201 µM. Compared with the last compound, the IC50 is about 55-fold lower.

Consider `CCc1n[nH]c(-c2ccccc2)c1-c1ccncc1`, for which the IC50 turned out to be 0.243 µM. This IC50 and that of the compound before are within 1.5-fold of each other.

In turn, `Cn1cc(-c2ccnc(F)c2)c(-c2ccc(F)cc2)n1` came in with a concentration for half-maximal inhibition (IC50) of 0.456 µM. Compared with the last compound, the IC50 is about 1.9-fold higher.

Compound `FC(F)(F)c1cccc(-c2n[nH]cc2-c2ccncc2)c1` registered an IC50 of 0.087 µM.

`O=C(NCCCc1[nH]nc(-c2ccc(F)cc2)c1-c1ccncc1)NC1CN2CCC1CC2` (stereo not drawn) showed a 50% inhibitory concentration (IC50) greater than 1 µM.

The assay is the same for the next values; noted with them: concentration not given here.
One may read the inhibition as the change of the read-out against control, counted positive when it falls. Higher therefore signals a response far below the control. For `O=C(c1ccccc1Cl)N1CCC(c2[nH]nc(-c3ccc(F)cc3)c2-c2ccncc2)CC1`, the inhibition was 85%.

For the compound `COc1ccc(CC(=O)N[C@H](C)c2[nH]nc(-c3ccc(F)cc3)c2-c2ccncc2)cc1`, the inhibition amounted to 29%.

`CCCOC(=O)NCc1[nH]nc(-c2ccc(F)cc2)c1-c1ccncc1` had an inhibition of 65%.

As to `CN(C(=O)NCCc1[nH]nc(-c2ccc(F)cc2)c1-c1ccncc1)c1ccccc1`, the inhibition came out at 41%.

Turning to `O=C(NCc1[nH]nc(-c2ccc(F)cc2)c1-c1ccncc1)c1cccc(C(F)(F)F)c1F`, the inhibition turned out to be 29%.

On to `O=C(NCc1[nH]nc(-c2ccc(F)cc2)c1-c1ccncc1)c1ccccn1`, for which the inhibition was 2%.

In turn, `C[C@H](NS(=O)(=O)c1ccc(C(F)(F)F)cc1)c1[nH]nc(-c2ccc(F)cc2)c1-c1ccncc1` registered an inhibition of 86%.

In the case of `O=C(NCc1[nH]nc(-c2ccc(F)cc2)c1-c1ccncc1)c1cc(F)cc(C(F)(F)F)c1`, the inhibition was 26%.

Compound `COc1ccc(S(=O)(=O)N[C@@H](C)c2[nH]nc(-c3ccc(F)cc3)c2-c2ccncc2)cc1OC` yielded an inhibition of 66%.

Compound `O=S(=O)(NCc1[nH]nc(-c2ccc(F)cc2)c1-c1ccncc1)c1ccccc1C(F)(F)F` yielded an inhibition of 46%.

Take `Cc1cccc(Cl)c1S(=O)(=O)N[C@H](C)c1[nH]nc(-c2ccc(F)cc2)c1-c1ccncc1`: the inhibition was 77%.

The compound `Cc1cccc(Cl)c1S(=O)(=O)N[C@@H](C)c1[nH]nc(-c2ccc(F)cc2)c1-c1ccncc1` had an inhibition of 89%.

The compound `O=C(NCc1[nH]nc(-c2ccc(F)cc2)c1-c1ccncc1)C1CCCC1` displayed an inhibition of 13%.

`C[C@@H](NC(=O)c1ccc(F)cc1C(F)(F)F)c1[nH]nc(-c2ccc(F)cc2)c1-c1ccncc1` gave an inhibition of 90%.

Consider `Cc1cc(C)c(S(=O)(=O)N[C@@H](C)c2[nH]nc(-c3ccc(F)cc3)c2-c2ccncc2)c(C)c1`, for which the inhibition was found to be 87%.

As for `C[C@@H](NS(=O)(=O)c1ccc(Cl)cc1)c1[nH]nc(-c2ccc(F)cc2)c1-c1ccncc1`, the inhibition was 92%.

For the compound `C[C@@H](NS(=O)(=O)c1cccc2ccccc12)c1[nH]nc(-c2ccc(F)cc2)c1-c1ccncc1`, the inhibition worked out at 58%.

Turning to `O=C(NCc1[nH]nc(-c2ccc(F)cc2)c1-c1ccncc1)c1ccc(Cl)cc1Cl`, the inhibition came out at 20%.

`C[C@@H](NC(=O)c1ccc(C(F)(F)F)cc1)c1[nH]nc(-c2ccc(F)cc2)c1-c1ccncc1` came in with an inhibition of 63%.

As to `C[C@@H](NC(=O)c1cccc(C(F)(F)F)c1)c1[nH]nc(-c2ccc(F)cc2)c1-c1ccncc1`, the inhibition was 25%.

`C[C@@H](NS(=O)(=O)c1ccccc1Cl)c1[nH]nc(-c2ccc(F)cc2)c1-c1ccncc1` came in with an inhibition of 95%.

Consider `C[C@@H](NC(=O)c1cccc(F)c1)c1[nH]nc(-c2ccc(F)cc2)c1-c1ccncc1`, for which the inhibition was determined as 52%.

In the case of `C[C@@H](NC(=O)c1c(Cl)cccc1Cl)c1[nH]nc(-c2ccc(F)cc2)c1-c1ccncc1`, the inhibition was 87%.

`O=S(=O)(NCc1[nH]nc(-c2ccc(F)cc2)c1-c1ccncc1)c1ccc(F)c(Cl)c1` came in with an inhibition of 78%.

As to `O=C(NCc1[nH]nc(-c2ccc(F)cc2)c1-c1ccncc1)c1ccc([N+](=O)[O-])o1`, the inhibition is 100%.

Turning to `CCS(=O)(=O)N[C@H](Cc1ccccc1)c1[nH]nc(-c2ccc(F)cc2)c1-c1ccncc1`, the inhibition came out at 5%.

On to `C[C@@H](NC(=O)N(C)c1ccccc1)c1[nH]nc(-c2ccc(F)cc2)c1-c1ccncc1`, for which the inhibition came to 30%.

The compound `C[C@H](NC(=O)c1cccc(Br)c1)c1[nH]nc(-c2ccc(F)cc2)c1-c1ccncc1` registered an inhibition of 21%.

`C[C@@H](NS(=O)(=O)c1c(Cl)cccc1Cl)c1[nH]nc(-c2ccc(F)cc2)c1-c1ccncc1`: the inhibition turned out to be 75%.

For the compound `CC(C)S(=O)(=O)N[C@H](C)c1[nH]nc(-c2ccc(F)cc2)c1-c1ccncc1`, the inhibition came to 52%.

`O=C(NCc1[nH]nc(-c2ccc(F)cc2)c1-c1ccncc1)c1c(F)ccc(F)c1F`: the inhibition was 36%.

With `CC(C)c1ccc(S(=O)(=O)N[C@H](C)c2[nH]nc(-c3ccc(F)cc3)c2-c2ccncc2)cc1`, the inhibition is 80%.

As for `C[C@H](NS(=O)(=O)c1ccc(Cl)c(Cl)c1)c1[nH]nc(-c2ccc(F)cc2)c1-c1ccncc1`, the inhibition was determined as 90%.

`O=C(NCc1[nH]nc(-c2ccc(F)cc2)c1-c1ccncc1)[C@@H]1C[C@@H]1c1ccccc1`: the inhibition was 28%.

Take `CC(=O)Nc1ccc(S(=O)(=O)NCCc2[nH]nc(-c3ccc(F)cc3)c2-c2ccncc2)cc1`: the inhibition is 24%.

`C[C@@H](NS(=O)(=O)c1cc(Cl)c(Cl)s1)c1[nH]nc(-c2ccc(F)cc2)c1-c1ccncc1` had an inhibition of 75%.

For `C[C@H](NC(=O)c1cccc(F)c1F)c1[nH]nc(-c2ccc(F)cc2)c1-c1ccncc1`, the inhibition is 32%.

The compound `C[C@@H](NC(=O)c1cc(F)cc(C(F)(F)F)c1)c1[nH]nc(-c2ccc(F)cc2)c1-c1ccncc1` gave an inhibition of 52%.

For `C[C@H](NC(=O)N(C)c1ccccc1)c1[nH]nc(-c2ccc(F)cc2)c1-c1ccncc1`, the inhibition came to 51%.

On to `C[C@H](NC(=O)NCCc1ccccc1)c1[nH]nc(-c2ccc(F)cc2)c1-c1ccncc1`, for which the inhibition is 36%.

`C[C@@H](NC(=O)C1CCCC1)c1[nH]nc(-c2ccc(F)cc2)c1-c1ccncc1` registered an inhibition of 12%.

As for `C[C@@H](NC(=O)c1cc(F)c(F)cc1F)c1[nH]nc(-c2ccc(F)cc2)c1-c1ccncc1`, the inhibition came to 52%.

In turn, `Cc1ccc(S(C)(=O)=O)cc1S(=O)(=O)NCc1[nH]nc(-c2ccc(F)cc2)c1-c1ccncc1` yielded an inhibition of 23%.

For the compound `CCCNC(=O)NCc1[nH]nc(-c2ccc(F)cc2)c1-c1ccncc1`, the inhibition is 39%.

In turn, `CN(C)CCNC(=O)NCCCc1[nH]nc(-c2ccc(F)cc2)c1-c1ccncc1` registered an inhibition of 11%.

The compound `CC(C)OC(=O)NCc1[nH]nc(-c2ccc(F)cc2)c1-c1ccncc1` gave an inhibition of 54%.

Compound `O=C(CCc1ccccc1)NCc1[nH]nc(-c2ccc(F)cc2)c1-c1ccncc1` registered an inhibition of 21%.

Compound `CC(C)c1ccc(S(=O)(=O)N[C@@H](C)c2[nH]nc(-c3ccc(F)cc3)c2-c2ccncc2)cc1` came in with an inhibition of 76%.

Consider `C[C@H](NC(=O)c1cccc(C(F)(F)F)c1)c1[nH]nc(-c2ccc(F)cc2)c1-c1ccncc1`, for which the inhibition is 32%.

With `O=S(=O)(NCc1[nH]nc(-c2ccc(F)cc2)c1-c1ccncc1)c1cc(Cl)cc(Cl)c1O`, the inhibition turned out to be 6%.

`CC(C)NC(=O)N[C@H](C)c1[nH]nc(-c2ccc(F)cc2)c1-c1ccncc1`: the inhibition stood at 52%.

In turn, `C[C@@H](NS(=O)(=O)c1cc(Cl)cc(Cl)c1)c1[nH]nc(-c2ccc(F)cc2)c1-c1ccncc1` displayed an inhibition of 91%.

With `C[C@H](NC(=O)c1ccccc1Br)c1[nH]nc(-c2ccc(F)cc2)c1-c1ccncc1`, the inhibition worked out at 39%.

As to `C[C@@H](NC(=O)c1cccs1)c1[nH]nc(-c2ccc(F)cc2)c1-c1ccncc1`, the inhibition was determined as 70%.

Consider `Cc1noc(C)c1C(=O)NCc1[nH]nc(-c2ccc(F)cc2)c1-c1ccncc1`, for which the inhibition was 28%.

`C[C@H](NC(=O)c1cccc(C#N)c1)c1[nH]nc(-c2ccc(F)cc2)c1-c1ccncc1` had an inhibition of 22%.

`CC(C)OC(=O)N[C@H](C)c1[nH]nc(-c2ccc(F)cc2)c1-c1ccncc1` displayed an inhibition of 45%.

`O=S(=O)(NCc1[nH]nc(-c2ccc(F)cc2)c1-c1ccncc1)c1cc(S(=O)(=O)c2ccccc2)cs1`: the inhibition came out at 58%.

`CCCOC(=O)N[C@@H](C)c1[nH]nc(-c2ccc(F)cc2)c1-c1ccncc1` had an inhibition of 61%.

Take `O=C(N[C@H](Cc1ccccc1)c1[nH]nc(-c2ccc(F)cc2)c1-c1ccncc1)[C@H]1CCCN1`: the inhibition turned out to be 2%.
